Assay results reported in patent US20020076412A1, “METHODS FOR MODULATING THE IMMUNE SYSTEM” (priority 1987, published 2002).
Where “and” joins values, the source holds several entries; their conditions need not be identical. Equal entries are not always repeated.

B1: IFN-γ: cytokine administered in a pilot study to alleviate symptoms of MS (protein, UniProt P01579 24-161, looked up)
Interferon gamma: QDPYVKEAENLKKYFNAGHSDVADNGTLFLGILKNWKEESDRKIMQSQIVSFYFKLFKNFKDDQSIQKSVETIKEDMNVKFFNSNKKKRDDFEKLTNYSVTDLNVQRKAIHELIQVMAELSPAAKTGKRKRSQMLFRG

Tests used:
EAE = assay: Competition with Ala6 and Ala5 for prevention of EAE with MBP (Table 3); assay type: in vivo, mice; conditions: peptide alone 0.2 mg in CFA; number with clinical EAE/number immunized; listed as Native MBP Peptide
Procedure: Incidence of EAE was expressed as number of mice with clinical EAE/number of mice immunized. For the induction of EAE, MBP peptide was dissolved in phosphate buffered saline (PBS) and emulsified with complete Freund's adjuvant (CFA) in a 1:1 mixture of PBS and CFA. Mice were injected with 0.2 ml emulsion at the base of the tail. On the same day and 48 h later, pertussis toxin (List Chemicals, Campbell, Calif.) was injected intravenously. Mice were examined daily for signs of EAE. For prevention of EAE, animals were immunized with MBP (0.2 mg), or in a mixture with the competitor peptide (1 mg).

CTL = CTL assay with substituted peptides; assay type: cell-based
87-99 T-cell line [1] = assay: Competition assay for T-cell proliferation with native peptide; assay type: cell-based, Lewis rat; conditions: blocking of proliferation of 87-99 T-cell line when given with native peptide in vitro
Procedure: The second assay is a competition assay for T-cell proliferation. In this assay, antigen presenting spleen cells are first irradiated and then incubated with native MBP peptide for 2-4 hours. These cells are then washed and further cultured with T-cells reactive to MBP. Various concentrations of candidate peptide analogues are included in cultures for an additional 3 days. Following this incubation period, each culture is pulsed with 1 μCi of [^3H]-thymidine for an additional 12-18 hours. Cultures are then harvested on fiberglass filters and counted as above. Mean CPM and standard error of the mean are calculated from data determined in triplicate cultures. Peptide analogues which inhibit proliferation to approximately 25% at a concentration of 50 μM or greater are suitable for further screening.
(§1) Proliferation Assay: Proliferative responses were determined as described previously (Zamvil, et al., Nature 317:355, 1985). 1×10^4 T-cells were cultured with 5×10^5 X-irradiated (3,000 rad) PL/J splenic APC in 0.2 ml of culture media in 96 well flat-bottomed microtiter plates (Falcon, 3072). Peptides were added to culture giving the final concentrations indicated. At 48 hours incubation, each well was pulsed with 1 μCi ^3H-thymidine and harvested 16 hours later. The mean c.p.m. thymidine incorporation was calculated for triplicate cultures. Standard deviations from replicate cultures were within 10% mean value. Proliferation assays were performed in 96-well microtiter plates. Briefly, 2×10^4 T-cells and 10^6 irradiated thymocytes/well were incubated with stimulation medium only, Con A, or antigen. The cultures were harvested onto glass fiber filters and TdR uptake was assessed by liquid scintillation. Mean cpm were calculated from triplicate wells. In some experiments, competitor peptides, or anti I-A (OX-6) or anti-I-E antibodies (OX-17) were used to evaluate which MHC molecules were used to restrict the T-cell response, or to determine whether peptides could antagonize stimulation by the native peptide.
(§2) The peptides were tested for their ability to cause EAE when mixed in CFA. […] It was seen that Ala4, Ala6, Ala7, and Ala8 are poor binders to I-E, implying that these residues 4F,6N,7I, and 8V are critical in MHC binding. […] Despite their inability to bind well to I-E, peptides ala6 and ala8 block the development of EAE when mixed with native peptide in a 5:1 molar ratio with CFA (0/6 sick with native plus ala6, 2/6 with native plus ala8, compared to 11/12 with native peptide alone). These competitor peptides Ala6 and Ala8, though poor I-E binders can apparently compete with native peptide and antagonize the T-cell receptor.

I-E = assay: MHC I-E binding of substituted MBP 87-99 peptides; design: species or system rat; conditions: for IC50: read-out: (M*C) IC50 I-E Binding
Text: A set of substituted peptides based on the sequence VHFFKNIVTPRT (Seq. ID No. 39), which is identical in rats, mice and human myelin basic protein (MBP), and corresponds to the I-E restricted epitope MBP 87-99 in the rat was produced. The peptides are shown in Table 1 (Seq. ID Nos. 39 to 52 respectively) MHC binding was measure say described in Smilek et al, 1991, Gautam et al 1992a&b.

EAE (RAT) [2] = assay: Ability of peptide mixed in CFA to cause EAE; assay type: in vivo; conditions: rats with EAE / rats immunized with the peptide alone in CFA
Procedure: as §2

EAE (RAT) [3] = assay: Prevention of EAE, competitor mixed with native peptide 5:1 in CFA; assay type: in vivo; conditions: sick/total; competitor plus native peptide 5:1 molar ratio in CFA; native line = native peptide alone
Procedure: as §2

87-99 T-cell line [4] = assay: Proliferation of encephalitogenic T-cell line raised against native peptide (87-99); assay type: cell-based, rat; conditions: stimulation of T-cell line raised against native 87-99; grades negative to 4+, key not given
Procedure: As noted above, candidate peptide analogues are first tested for their property of causing or inhibiting proliferation of T-cell lines. In the proliferation assay, MBP reactive T-cell lines may be used as target cells. T-cell lines are established from lymph nodes taken from rats injected with MBP. Lymph node cells are isolated and cultured for 5 to 8 days with MBP and IL-2 as a source of T-cell growth factors. Viable cells are recovered and a second round of stimulation is performed with MBP and irradiated splenocytes as a source of growth factors. After 5 to 6 passages in this manner, the proliferative potential of the cell lines are determined. MBP-reactive lines are used in the proliferation assay. In this assay, T-cell lines are cultured for three days with various concentrations of peptide analogues and irradiated, autologous splenocytes. After three days, 0.5-1.0 μCi of [^3H]-thymidine is added for 12-16 hours. Cultures are harvested and incorporated counts determined. Mean CPM and standard error of the mean are calculated from triplicate cultures.
Development of MBP-specific T-cell lines in the rat: T-cell lines are selected from LN or SC (spinal cords) of rats immunized with guinea pig myelin basic protein or with MBP peptide (200 μg) in CFA. Supernatants from ConA-stimulated Lewis rat splenocytes are used as the source of IL-2 to expand Ag-stimulated T-cells.
as §1

MS patients = conditions: cited from earlier work

Molecule	Incidence of EAE (EAE)	CTL (CTL)	Comp Assay Prolif (RAT) (87-99 T-cell line [1])	IC50 (I-E)	EAE (RAT) (EAE (RAT) [2])	EAE (RAT) (EAE (RAT) [3])	binding to I-E / MHC (in words) (I-E)	Comp Assay Prolif (RAT) (87-99 T-cell line [1]; listed as Ala8)	Prolif. (87-99 T-cell line [4])	EAE (RAT) (EAE (RAT) [2]; listed as Ala8)	specific response to MBP (MS patients; in vivo)	patients with clinical exacerbation (MS patients; within one month after initiation of treatment)
CC[C@H](C)[C@H](NC(=O)[C@H](CC(N)=O)NC(=O)[C@H](CCCCN)NC(=O)[C@H](Cc1ccccc1)NC(=O)[C@H](Cc1ccccc1)NC(=O)[C@H](Cc1c[nH]cn1)NC(=O)[C@@H](N)C(C)C)C(=O)N[C@H](C(=O)N[C@H](C(=O)N1CCC[C@H]1C(=O)N[C@@H](CCCNC(=N)N)C(=O)N[C@H](C(=O)N1CCC[C@H]1C(=O)O)[C@@H](C)O)[C@@H](C)O)C(C)C [native, reference compound]	11/12 and 6/6	nega-	MINUS	14 µM	21/21	11/12						
CC(C)[C@H](N)C(=O)N[C@@H](Cc1c[nH]cn1)C(=O)N[C@@H](Cc1ccccc1)C(=O)N[C@@H](Cc1ccccc1)C(=O)N[C@@H](CCCCN)C(=O)N[C@@H](CC(N)=O)C(=O)N[C@@H](C)C(=O)N[C@H](C(=O)N[C@H](C(=O)N1CCC[C@H]1C(=O)N[C@@H](CCCNC(=N)N)C(=O)N[C@H](C(=O)N1CCC[C@H]1C(=O)O)[C@@H](C)O)[C@@H](C)O)C(C)C [Ala 7]		plus		> 200 µM	6/6		poor binders					
CC[C@H](C)[C@H](NC(=O)[C@H](CC(N)=O)NC(=O)[C@H](CCCCN)NC(=O)[C@H](Cc1ccccc1)NC(=O)[C@H](Cc1ccccc1)NC(=O)[C@H](Cc1c[nH]cn1)NC(=O)[C@@H](N)C(C)C)C(=O)N[C@@H](C)C(=O)N[C@H](C(=O)N1CCC[C@H]1C(=O)N[C@@H](CCCNC(=N)N)C(=O)N[C@H](C(=O)N1CCC[C@H]1C(=O)O)[C@@H](C)O)[C@@H](C)O [Ala 8]		plus	plus	> 200 µM	1/15	2/6	poor binders	can block proliferation	weakly stimulate	incapable of causing EAE		
IFN-γ: cytokine administered in a pilot study to alleviate symptoms of MS											increase	
B1												7 of 18
